pIC50: −log10 of the molar value.
Tests used:
H929 cells = assay: Cell viability assay (Cell TiterGlo); format: cell-based; conditions: Cell TiterGlo luminescence
Method: The cell viability assay was performed using H929 cells. Cells were seeded in 96-well plates at 10,000 cells/well and, after overnight incubation, treated with compounds in a dose response of 3-fold dilutions from 10 μM to 0.005 μM ([…], 0.1% final DMSO concentration). After 24 hours at 37° C., cell viability was measured using Cell TiterGlo reagent (Promega) with a luminescence reader.

CDK9/Cyclin T1 = CDK9/Cyclin T1 (Homo sapiens (Human), UniProt P50750); assay: CDK9 enzyme assay (LANCE ULight TR-FRET kinase assay); format: biochemical; conditions: 1000 μM ATP, 100 nM ULight MBP, kinase reaction 1 hour
CDK9/Cyclin T1, sequence (P50750 whole entry): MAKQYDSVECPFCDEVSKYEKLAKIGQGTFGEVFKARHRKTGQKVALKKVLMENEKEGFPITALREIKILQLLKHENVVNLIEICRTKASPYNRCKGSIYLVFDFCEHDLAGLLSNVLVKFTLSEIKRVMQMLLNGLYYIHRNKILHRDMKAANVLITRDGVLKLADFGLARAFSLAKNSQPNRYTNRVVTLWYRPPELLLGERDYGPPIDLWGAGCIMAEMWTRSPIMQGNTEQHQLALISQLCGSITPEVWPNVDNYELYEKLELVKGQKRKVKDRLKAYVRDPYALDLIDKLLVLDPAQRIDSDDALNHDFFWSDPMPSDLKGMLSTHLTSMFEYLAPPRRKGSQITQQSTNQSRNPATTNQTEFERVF
CDK9/Cyclin T1, sequence (O60563 whole entry partner): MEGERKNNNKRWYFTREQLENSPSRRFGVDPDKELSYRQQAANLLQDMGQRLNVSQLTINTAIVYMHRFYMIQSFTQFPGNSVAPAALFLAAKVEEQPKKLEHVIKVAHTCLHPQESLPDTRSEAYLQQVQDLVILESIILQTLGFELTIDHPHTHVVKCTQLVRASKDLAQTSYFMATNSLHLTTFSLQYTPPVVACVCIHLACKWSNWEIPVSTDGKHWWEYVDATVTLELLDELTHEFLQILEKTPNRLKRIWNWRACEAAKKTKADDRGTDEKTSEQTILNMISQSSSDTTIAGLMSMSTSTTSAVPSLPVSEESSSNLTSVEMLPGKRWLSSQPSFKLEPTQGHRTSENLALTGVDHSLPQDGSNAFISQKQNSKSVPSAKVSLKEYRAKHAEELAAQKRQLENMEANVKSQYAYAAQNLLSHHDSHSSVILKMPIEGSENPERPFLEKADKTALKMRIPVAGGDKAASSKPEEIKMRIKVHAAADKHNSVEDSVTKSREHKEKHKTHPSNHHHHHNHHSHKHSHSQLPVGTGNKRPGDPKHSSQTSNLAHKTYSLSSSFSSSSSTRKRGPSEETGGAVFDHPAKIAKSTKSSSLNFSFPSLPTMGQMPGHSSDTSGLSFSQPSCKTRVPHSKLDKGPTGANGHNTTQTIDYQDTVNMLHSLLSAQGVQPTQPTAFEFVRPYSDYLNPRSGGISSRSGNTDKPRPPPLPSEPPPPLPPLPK
Method: CDK9 enzyme activities were measured using LANCE ULight TR-FRET kinase assay reagents (PerkinElmer, Waltham, Mass.). Compounds were diluted in 100% DMSO then diluted with 1:10 in serine/threonine kinase assay buffer containing 20 mM HEPES, 10 mM MgCl2, […], and 0.0075% Triton X-100. Equal volume of the compound dilutions was added to a final reaction mixture containing LANCE detection buffer (PerkinElmer CR97-100), 100 nM ULight MBP (PerkinElmer TRF0109M), 1000 μM ATP, and CDK9/Cyclin T1 (Carna Biosciences 04-110). The kinase reaction was carried out for 1 hour before addition of stopping buffer to a final of 20 mM EDTA and 0.5 nM of LANCE Ultra Europium anti-phospho-MBP antibody (PerkinElmer TRF0201M) in LANCE detection buffer. The reaction was incubated for 1 hour and the signal was read in Envision in TR-FRET mode (excitation at 320 nm and emission at 615/665 nm).

[1] = Homo sapiens, NCI-H929, 24 hours at 37° C.

SMILES | pIC50 (H929 cells; [1]) | pIC50 (CDK9/Cyclin T1) | pIC50 (H929 cells; 24 hours at 37° C.)
CN1Cc2c(C3=C[C@H]4CC[C@@H](C3)N4CC(=O)N3CCC[C@H]3CO)[nH]c3nccc(c23)-c2cc(F)ccc21 [Example 79, 2-[(1R,5S)-3-(10-fluoro-7-methyl-6,7-dihydro-4H-3,4,7-triazadibenzo[cd,f]azulen-5-yl)-8-azabicyclo[3.2.1]oct-2-en-8-yl]-1-[(2S)-2-(hydroxymethyl)pyrrolidin-1-yl]ethanone] | 7.31 | 7.14 | 
CN(CCO)C(=O)CN1CC=C(c2[nH]c3nccc4c3c2CN(C)c2ccc(F)cc2-4)CC1 [Example 19, 2-[4-(10-fluoro-7-methyl-6,7-dihydro-4H-3,4,7-triazadibenzo[cd,f]azulen-5-yl)-3,6-dihydropyridin-1(2H)-yl]-N-(2-hydroxyethyl)-N-methylacetamide] | 8.10 | 7.32 | 
CN1Cc2c(C3=CCN(CC(=O)N4CCC[C@@H]4CO)CC3)[nH]c3nccc(c23)-c2cc(F)ccc21 [Example 64, 2-[4-(10-fluoro-7-methyl-6,7-dihydro-4H-3,4,7-triazadibenzo[cd,f]azulen-5-yl)-3,6-dihydropyridin-1(2H)-yl]-1-[(2R)-2-(hydroxymethyl)pyrrolidin-1-yl]ethanone] | 7.03 | 7.21 | 
CN1CCc2c(C3=CCNCC3)[nH]c3nccc(c23)-c2cc(F)ccc21 [Example 127, 8-fluoro-5-methyl-2-(1,2,3,6-tetrahydropyridin-4-yl)-1,3,4,5-tetrahydro-1,5,12-triazabenzo[4,5]cycloocta[1,2,3-cd]indene] |  | 7.59 | 7.00
CN1Cc2c(C3CCN(CC(=O)O)CC3)[nH]c3nccc(c23)-c2cc(F)ccc21 [Example 23, [4-(10-fluoro-7-methyl-6,7-dihydro-4H-3,4,7-triazadibenzo[cd,f]azulen-5-yl)piperidin-1-yl]acetic acid] |  | 6.82 | 
CN1Cc2c(C3=C[C@@H]4COC(=O)N4CC3)[nH]c3nccc(c23)-c2cc(F)ccc21 [Example 151, (8aR)-7-(10-fluoro-7-methyl-6,7-dihydro-4H-3,4,7-triazadibenzo[cd,f]azulen-5-yl)-1,5,6,8a-tetrahydro[1,3]oxazolo[3,4-a]pyridin-3-one] | 6.72 | 7.43 | 
CN1Cc2c(C3=CCN(CC(=O)N4CC(CO)C4)CC3)[nH]c3ncc(F)c(c23)-c2cc(F)ccc21 [Example 74, 2-[4-(1,10-difluoro-7-methyl-6,7-dihydro-4H-3,4,7-triazadibenzo[cd,f]azulen-5-yl)-3,6-dihydropyridin-1(2H)-yl]-1-[3-(hydroxymethyl)azetidin-1-yl]ethanone] | 7.68 | 7.05 | 
CN1Cc2c(C3=CCN(CC(=O)N4CC(O)C4)CC3)[nH]c3nccc(c23)-c2cc(F)ccc21 [Example 18, 2-[4-(10-fluoro-7-methyl-6,7-dihydro-4H-3,4,7-triazadibenzo[cd,f]azulen-5-yl)-3,6-dihydropyridin-1(2H)-yl]-1-(3-hydroxyazetidin-1-yl)ethanone] | 6.80 | 7.36 | 
CNC(=O)N1CC=C(c2[nH]c3nccc4c3c2CN(C)c2ccc(F)cc2-4)CC1 [Example 13, 4-(10-fluoro-7-methyl-6,7-dihydro-4H-3,4,7-triazadibenzo[cd,f]azulen-5-yl)-N-methyl-3,6-dihydropyridine-1(2H)-carboxamide] | 7.03 |  | 
CN1Cc2c(C3=CCN(C(=O)OC(C)(C)C)CC3)[nH]c3nccc(c23)-c2cc(F)ccc21 [Example 2, tert-butyl 4-(10-fluoro-7-methyl-6,7-dihydro-4H-3,4,7-triazadibenzo[cd,f]azulen-5-yl)-3,6-dihydropyridine-1(2H)-carboxylate] | 6.03 |  | 
CCC1c2c(C3=CCN(C(=O)OC(C)(C)C)CC3)[nH]c3nccc(c23)-c2cc(F)ccc2N1C (stereo not shown) [Example 8, tert-butyl 4-(6-ethyl-10-fluoro-7-methyl-6,7-dihydro-4H-3,4,7-triazadibenzo[cd,f]azulen-5-yl)-3,6-dihydropyridine-1(2H)-carboxylate] |  | 5.85 | 
CN1Cc2c(C3=CCN([C@H]4CC[C@H](C(=O)O)CC4)CC3)[nH]c3nccc(c23)-c2ccccc21 [Example 171, trans-4-[4-(7-methyl-6,7-dihydro-4H-3,4,7-triazadibenzo[cd,f]azulen-5-yl)-3,6-dihydropyridin-1(2H)-yl]cyclohexanecarboxylic acid] |  | 6.82 | 
CN1Cc2c(C3=CCN([C@H]4CC[C@@H](CC(=O)O)CC4)CC3)[nH]c3nccc(c23)-c2ccccc21 [Example 170, {cis-4-[4-(7-methyl-6,7-dihydro-4H-3,4,7-triazadibenzo[cd,f]azulen-5-yl)-3,6-dihydropyridin-1(2H)-yl]cyclohexyl}acetic acid] |  | 6.96 | 
COC(=O)C[C@H]1CC[C@H](N2CC=C(c3[nH]c4nccc5c4c3CN(C)c3cc(F)c(F)cc3-5)CC2)CC1 [Example 133, methyl{trans-4-[4-(9,10-difluoro-7-methyl-6,7-dihydro-4H-3,4,7-triazadibenzo[cd,f]azulen-5-yl)-3,6-dihydropyridin-1(2H)-yl]cyclohexyl}acetate] |  | 7.24 | 
CN1Cc2c(C3=CCCN(CC(=O)O)C3)[nH]c3nccc(c23)-c2cc(F)ccc21 [Example 112, [5-(10-fluoro-7-methyl-6,7-dihydro-4H-3,4,7-triazadibenzo[cd,f]azulen-5-yl)-3,6-dihydropyridin-1(2H)-yl]acetic acid] |  | 6.62 | 
CN1Cc2c(C3CCN(CC(=O)OC(C)(C)C)CC3)[nH]c3nccc(c23)-c2cc(F)ccc21 [Example 22, tert-butyl[4-(10-fluoro-7-methyl-6,7-dihydro-4H-3,4,7-triazadibenzo[cd,f]azulen-5-yl)piperidin-1-yl]acetate] |  | 5.55 | 
CN(CCO)C(=O)CN1CC=C(c2[nH]c3ncc(F)c4c3c2CN(C)c2ccc(F)cc2-4)CC1 [Example 71, 2-[4-(1,10-difluoro-7-methyl-6,7-dihydro-4H-3,4,7-triazadibenzo[cd,f]azulen-5-yl)-3,6-dihydropyridin-1(2H)-yl]-N-(2-hydroxyethyl)-N-methylacetamide] | 7.68 |  | 
CN1Cc2c(C3=CCN(S(C)(=O)=O)CC3)[nH]c3ncc(F)c(c23)-c2cc(F)ccc21 [Example 68, 1,10-difluoro-7-methyl-5-[1-(methylsulfonyl)-1,2,3,6-tetrahydropyridin-4-yl]-6,7-dihydro-4H-3,4,7-triazadibenzo[cd,f]azulene] | 6.89 |  | 
CN1Cc2c(C3=CCN([C@H]4CC[C@H](CC(=O)O)CC4)CC3)[nH]c3nccc(c23)-c2ccccc21 [Example 169, {trans-4-[4-(7-methyl-6,7-dihydro-4H-3,4,7-triazadibenzo[cd,f]azulen-5-yl)-3,6-dihydropyridin-1(2H)-yl]cyclohexyl}acetic acid] |  | 7.05 | 
CN1Cc2c(C3=CCN(C4CCC(C(=O)O)CC4)CC3)[nH]c3nccc(c23)-c2ccccc21 (stereo not shown) [Example 172, 4-[4-(7-methyl-6,7-dihydro-4H-3,4,7-triazadibenzo[cd,f]azulen-5-yl)-3,6-dihydropyridin-1(2H)-yl]cyclohexanecarboxylic acid] |  | 6.92 | 
CC(C(=O)O)=C1CCC(N2CC=C(c3[nH]c4nccc5c4c3CN(C)c3ccc(F)cc3-5)CC2)CC1 (stereo not shown) [Example 176, 2-{4-[4-(10-fluoro-7-methyl-6,7-dihydro-4H-3,4,7-triazadibenzo[cd,f]azulen-5-yl)-3,6-dihydropyridin-1(2H)-yl]cyclohexylidene}propanoic acid] |  | 7.08 | 
